A short description of series [1]: Antiprion activity against Chandler strain of sheep scrapie prion protein infected in mouse SMB cells assessed as clearance of disease-associated scrapie prion protein. The format is cell-based, Ovis aries.
The nature of series [2]: Cytotoxicity against mouse SMB cells up to 20 uM. The format is cell-based.
For series [3], the system named is Plasmodium falciparum. The series can be described thus: Antimalarial malarial activity against chloroquine-resistant Plasmodium falciparum K1 infected in human A positive erythrocytes assessed as inhibition of [3H]hypoxanthine incorporation after 24 hrs. The format is functional, organism-based.
Series [4] has as its system Plasmodium falciparum. The series can be described thus: Antimalarial malarial activity against chloroquine-sensitive Plasmodium falciparum 3D7 infected in human A positive erythrocytes assessed as inhibition of [3H]hypoxanthine incorporation after 24 hrs. The format is functional, organism-based.
Series [5] has as its system Plasmodium falciparum. Nature of the series: Antimalarial malarial activity against chloroquine-sensitive Plasmodium falciparum 3D7 infected in human A positive erythrocytes assessed as inhibition of [3H]hypoxanthine incorporation at 19.3 ug/ml after 24 hrs. The format is functional, organism-based.
For series [6], the system named is Plasmodium falciparum. Nature of the series: Antimalarial malarial activity against chloroquine-resistant Plasmodium falciparum K1 infected in human A positive erythrocytes assessed as inhibition of [3H]hypoxanthine incorporation 10 ug/ml after 24 hrs. The format is functional, organism-based.
[7] abbreviates: Ovis aries, SMB, read-out: EC50.

The structures appear in SMILES notation. Activity calls are given as the source filed them. No cut-off for these calls is given here.

A word on the EC50: it is the concentration needed to bring the measured effect to its halfway point. The term IC50 denotes the concentration that gives 50% inhibition. For the compound `CCN(CC)CCCC(C)NC(=O)c1sc(-c2ccccc2)nc1-c1ccccc1` (stereo not drawn), in series [1] (setting [7]), the EC50 is 2.9 µM. Besides, the Activity entry in series [2] is “Non-toxic”. The results for the IC50 in the series on Plasmodium falciparum [3] and in the series with Plasmodium falciparum [4] were 3.8 µM and 9.5 µM, respectively.

In the case of `O=C(c1sc(-c2ccccc2)nc1-c1ccccc1)N1CCC(N2CCCC2)CC1`, in series [1] (setting [7]), the EC50 worked out at 5.5 µM. Further, the Activity entry in series [2] was “Non-toxic”. Further, the IC50 in the series with Plasmodium falciparum [3] came to 6.2 µM; in the series with Plasmodium falciparum [4] it was 12 µM.

For the compound `CCN(CC)CCCC(C)Nc1ccnc2cc(Cl)ccc12` (stereo not drawn) [CHLOROQUINE], in series [1] (setting [7]), the EC50 was determined as 2.3 µM.

For `CCN(CC)CCNC(=O)c1sc(-c2ccccc2)nc1-c1ccccc1`, in series [1] (setting [7]), the EC50 turned out to be 4.9 µM. Besides, in the series with Plasmodium falciparum [5], the inhibition entry was “inactive”. Further, in series [2], the Activity entry was “Non-toxic”. For the same compound, the IC50 in the series on Plasmodium falciparum [3] was found to be 0.71 µM.

Turning to `CCN(CC)CCNC(=O)c1sc(-c2ccc(OC)cc2)nc1-c1ccccc1`, the half-maximal effective concentration (EC50) in series [1] (setting [7]) amounted to 4 µM. In addition, the inhibition entry with Plasmodium falciparum [5] was “inactive”. Also, the Activity result in series [2] was “Non-toxic”. The IC50 in the series with Plasmodium falciparum [3] amounted to 7.7 µM.

As for `O=C(c1sc(-c2ccccc2)nc1-c1ccccc1)N1CCC(N2CCCCC2)CC1`, the EC50 in series [1] (setting [7]) is 1.9 µM. Moreover, the Activity entry in series [2] is on record as “Non-toxic”. Moreover, the figures for the IC50 in the series with Plasmodium falciparum [3] and in the series with Plasmodium falciparum [4] were 0.83 µM and 20.2 µM, respectively.

For `CN(C)CCNC(=O)c1sc(-c2ccccc2)nc1-c1ccccc1`, the EC50 in series [1] (setting [7]) was 4.8 µM. The inhibition entry in the series with Plasmodium falciparum [5] was “inactive”. Also, the Activity result in series [2] is recorded as “Toxic”. Also, the IC50 in the series with Plasmodium falciparum [3] amounted to 8.8 µM.

With `CCN(CC)CCNC(=O)c1sc(-c2cccs2)nc1-c1ccccc1`, the EC50 in series [1] (setting [7]) amounted to 6.7 µM. Further, the Activity entry in series [2] is given as “Non-toxic”. Also, the IC50 in the series with Plasmodium falciparum [3] is 4.4 µM; in the series with Plasmodium falciparum [4] it was 13.8 µM.

Turning to `CCN(CC)CCNC(=O)c1sc(-c2cccnc2)nc1-c1ccccc1`, the EC50 in series [1] (setting [7]) turned out to be 20 µM. Also, in the series with Plasmodium falciparum [5], the inhibition entry was “inactive”. Moreover, the Activity entry in series [2] was “Non-toxic”. The IC50 with Plasmodium falciparum [3] was determined as 5.3 µM.

Regarding `O=C(NCCN1CCOCC1)c1sc(-c2ccccc2)nc1-c1ccccc1`, the EC50 result in series [1] (smb) is reported as “Not Active”. Also, the inhibition result with Plasmodium falciparum [5] and in the series on Plasmodium falciparum [6] was “inactive” each time. In addition, the Activity result in series [2] is given as “Non-toxic”.

In the case of `O=C(NCc1ccccn1)c1sc(-c2ccccc2)nc1-c1ccccc1`, the EC50 entry in series [1] (smb) is recorded as “Not Active”. Further, the Activity result in series [2] is given as “Non-toxic”. Moreover, the figures for the IC50 in the series on Plasmodium falciparum [3] and in the series on Plasmodium falciparum [4] were 15 µM and 19.7 µM, respectively.

For the compound `O=C(NCCCn1ccnc1)c1sc(-c2ccccc2)nc1-c1ccccc1`, in series [1] (smb), the EC50 result is on record as “Not Active”. The Activity entry in series [2] was “Non-toxic”. The figures for the IC50 in the series on Plasmodium falciparum [3] and with Plasmodium falciparum [4] were 11.5 µM and 13.9 µM, respectively.

Take `CCN(CC)CCCNC(=O)c1sc(-c2ccccc2)nc1-c1ccccc1`: the EC50 in series [1] (setting [7]) turned out to be 2.3 µM. Moreover, in series [2], the Activity result was “Non-toxic”. Moreover, the IC50 stood at 13.3 µM with Plasmodium falciparum [3] and 1 µM in the series on Plasmodium falciparum [4].

Turning to `O=C(NCCN1CCCC1)c1sc(-c2ccccc2)nc1-c1ccccc1`, the EC50 in series [1] (setting [7]) is 10.7 µM. For the same compound, the inhibition entry in the series on Plasmodium falciparum [5] was “inactive”. In series [2], the Activity entry is recorded as “Toxic”. Moreover, the half-inhibitory concentration (IC50) in the series with Plasmodium falciparum [3] worked out at 14.9 µM.
